# Source: patent US20110269802A1, “METHOD OF DELIVERY OF PERISHABLE LIQUID MIXTURES USING MIXING CAP AND CONTAINER SYSTEM” (priority 2010, published 2011)
# Tested on: diabetic, insulin dependent canine test subject
# Test: GABA in drinking water given to diabetic, insulin dependent canine subjects; monitoring of fasting blood glucose and fructosamine
# Type: in vivo
# Conditions: for decline of fasting blood glucose: 30 mg/kg daily in 200 milliliters of water, oral, after two months of treatment, subject as its own control
# Experimental: METHODS: GABA (99% pure from Sigma-Aldrich) at a dose of 30 mg/kg was brought into solution in 200 milliliters of water daily so that the diabetic, insulin dependent canine test subject consumed the dose within approximately four hours, based on average consumption of water observed by owners. Fasting blood glucose and fructosamine were monitored once a month. Each canine subject served as its own control, with monitoring of blood glucose and fructosamine off treatment recorded the first two months followed by monitoring while on GABA therapy.
compound,measurement,setting,value
"NCCCC(=O)O [GABA, gamma-aminobutyric acid]",concentrations of blood fructosamine,"both subjects, 30 mg/kg daily in water, on treatment versus off treatment",significantly lower
same,decline of fasting blood glucose,first test subject,49.6%
same,glycemic control,"insulin dependent test subjects, 30 mg/kg daily in water, within two weeks, continued improvement over four months",improved glycemic control within two weeks
same,decline of fasting blood glucose,second test subject,50%
